According to ChEMBL document CHEMBL1201862, “PubChem BioAssay data set” (2004):
One block for each compound: values may come before it. Active and inactive are the calls of the source.

Key:
[1] = target: T1, RNA-binding protein pos-1 (Caenorhabditis elegans, UniProt G5EF15); assay: inhibitors of POS-1/mex-3 RNA binding, dose response, biochemical, fluorescence polarization (AID 1964);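 further: purified POS-1 fused to maltose binding protein made in E. coli; potency of compounds blocking POS-1 binding to fluorescent RNA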
T1 sequence (G5EF15 whole entry): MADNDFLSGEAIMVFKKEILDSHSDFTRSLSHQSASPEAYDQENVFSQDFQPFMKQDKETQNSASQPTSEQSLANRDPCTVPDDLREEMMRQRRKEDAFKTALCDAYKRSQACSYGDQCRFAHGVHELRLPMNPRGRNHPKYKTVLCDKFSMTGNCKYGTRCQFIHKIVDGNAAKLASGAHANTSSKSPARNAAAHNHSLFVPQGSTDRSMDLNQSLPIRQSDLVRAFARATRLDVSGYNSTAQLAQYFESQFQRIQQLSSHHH

[2] = target: T2, Zinc finger protein mex-5 (Caenorhabditis elegans, UniProt Q9XUB2); assay: MEX-5/TCR-2 RNA interaction inhibitors, dose response, biochemical, C. elegans, fluorescence polarization (AID 1960)
T2 sequence (Q9XUB2 whole entry): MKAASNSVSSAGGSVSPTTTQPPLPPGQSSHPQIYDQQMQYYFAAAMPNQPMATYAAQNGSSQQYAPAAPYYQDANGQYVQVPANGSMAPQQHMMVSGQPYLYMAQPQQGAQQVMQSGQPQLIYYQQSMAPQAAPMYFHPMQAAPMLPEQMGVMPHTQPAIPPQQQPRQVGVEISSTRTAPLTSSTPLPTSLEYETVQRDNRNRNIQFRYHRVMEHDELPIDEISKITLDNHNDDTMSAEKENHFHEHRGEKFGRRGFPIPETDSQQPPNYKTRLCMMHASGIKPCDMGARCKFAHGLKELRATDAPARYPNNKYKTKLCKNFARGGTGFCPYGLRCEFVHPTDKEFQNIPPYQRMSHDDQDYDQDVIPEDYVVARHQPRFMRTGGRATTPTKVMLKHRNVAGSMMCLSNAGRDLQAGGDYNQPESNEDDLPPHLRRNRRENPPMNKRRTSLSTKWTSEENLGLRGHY

[3] = target: Neurotensin receptor type 1 (Homo sapiens, UniProt P30989); type: functional;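 further: Image-based confirmatory dose-response assay measuring agonist activity at NTR1; NTR1-expressing U2OS osteosarcoma cells imaged for beta-arrestin GFP spot formation; agonist potency where compounds increase beta-arrestin recruitment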
CAAX prenyl protease 2 = target: T3, CAAX prenyl protease 2 (Homo sapiens, UniProt Q9Y256); assay: human Rce1 protease inhibitors, dose response, biochemical, yeast membranes, quenched-peptide fluorescence, cherry-pick (AID 588849)
T3 sequence (Q9Y256 whole entry): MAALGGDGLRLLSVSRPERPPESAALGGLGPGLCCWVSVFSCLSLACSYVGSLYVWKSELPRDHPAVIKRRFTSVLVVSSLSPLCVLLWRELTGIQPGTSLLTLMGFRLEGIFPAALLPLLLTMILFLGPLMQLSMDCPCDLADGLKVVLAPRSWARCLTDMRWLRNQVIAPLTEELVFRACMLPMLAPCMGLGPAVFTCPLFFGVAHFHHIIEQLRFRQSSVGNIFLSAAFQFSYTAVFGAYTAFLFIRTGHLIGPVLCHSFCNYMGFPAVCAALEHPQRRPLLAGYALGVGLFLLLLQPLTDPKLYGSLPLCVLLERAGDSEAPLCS

Trypsin = Trypsin (Sus scrofa, UniProt P00761); assay: porcine trypsin inhibitors, dose response, selectivity assay for Rce1 protease inhibitor project, biochemical, quenched peptide fluorescence, cherry-pick (AID 488789)
[4] = target: Female germline-specific tumor suppressor gld-1 (Caenorhabditis elegans, UniProt Q17339); assay: inhibitors of GLD-1 binding to TGE RNA, dose response, biochemical, fluorescence polarization, C. elegans (AID 2802);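 further: fluorescence polarization of labeled TGE RNA bound by purified gld-1 protein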
[5] = target: T4, Voltage-gated N-type calcium channel alpha-1B subunit/Amyloid beta A4 precursor protein-binding family A member 1 (Homo sapiens, UniProt Q00975+Q02410); type: protein assay
Protein Rev = Protein Rev (Human immunodeficiency virus type 1 group M subtype B (isolate HXB2)(HIV-1), UniProt P04618); assay: inhibitors of Rev binding to RRE RNA, dose response, biochemical, fluorescence polarization, HIV-1 (AID 434976); parameters: species or system Human immunodeficiency virus 1
[6] = target: T5, Apoptotic protease-activating factor 1 (Homo sapiens, UniProt O14727); type: functional
T5 sequence (O14727 whole entry): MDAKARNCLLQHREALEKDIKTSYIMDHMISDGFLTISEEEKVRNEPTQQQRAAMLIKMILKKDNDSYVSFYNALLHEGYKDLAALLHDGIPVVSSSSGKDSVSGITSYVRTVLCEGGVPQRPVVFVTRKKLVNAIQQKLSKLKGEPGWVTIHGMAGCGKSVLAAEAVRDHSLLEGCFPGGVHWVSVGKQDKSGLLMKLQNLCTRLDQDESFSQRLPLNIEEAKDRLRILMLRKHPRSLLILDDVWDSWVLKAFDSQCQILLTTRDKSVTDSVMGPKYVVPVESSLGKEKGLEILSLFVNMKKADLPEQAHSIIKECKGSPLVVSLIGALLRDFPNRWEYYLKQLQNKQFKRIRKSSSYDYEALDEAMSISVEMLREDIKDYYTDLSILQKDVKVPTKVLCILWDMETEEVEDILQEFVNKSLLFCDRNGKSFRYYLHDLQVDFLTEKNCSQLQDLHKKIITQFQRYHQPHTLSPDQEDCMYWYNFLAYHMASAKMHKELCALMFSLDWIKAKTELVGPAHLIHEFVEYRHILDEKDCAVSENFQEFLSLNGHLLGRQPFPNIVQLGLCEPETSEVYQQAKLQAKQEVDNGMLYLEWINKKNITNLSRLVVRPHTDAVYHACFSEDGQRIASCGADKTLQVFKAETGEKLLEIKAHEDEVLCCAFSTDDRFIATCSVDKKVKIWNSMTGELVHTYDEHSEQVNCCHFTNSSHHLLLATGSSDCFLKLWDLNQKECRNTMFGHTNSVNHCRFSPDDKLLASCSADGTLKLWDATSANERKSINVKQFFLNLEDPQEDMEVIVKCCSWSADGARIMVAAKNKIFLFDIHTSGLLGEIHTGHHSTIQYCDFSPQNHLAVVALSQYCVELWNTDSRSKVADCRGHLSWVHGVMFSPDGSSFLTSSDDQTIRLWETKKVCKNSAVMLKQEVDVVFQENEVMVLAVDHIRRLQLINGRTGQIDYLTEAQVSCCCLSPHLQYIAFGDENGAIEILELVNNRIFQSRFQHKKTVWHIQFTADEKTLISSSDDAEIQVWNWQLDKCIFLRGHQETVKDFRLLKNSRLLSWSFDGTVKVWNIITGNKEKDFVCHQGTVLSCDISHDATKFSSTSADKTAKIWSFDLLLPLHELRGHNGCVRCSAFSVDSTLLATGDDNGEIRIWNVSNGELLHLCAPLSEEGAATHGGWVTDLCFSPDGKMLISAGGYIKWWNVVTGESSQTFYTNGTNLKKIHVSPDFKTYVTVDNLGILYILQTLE

[7] = target: T4, Voltage-gated N-type calcium channel alpha-1B subunit/Amyloid beta A4 precursor protein-binding family A member 1; type: protein assay; remark: listed apart in the source
[8] = Luminescence Cell Based Dose Confirmation HTS to Identify Activators of 5'UTR Stem-Loop Driven Alpha-Synuclein mRNA Translation in H4 Neuroglioblastoma Cells. [Related pubchem assays (depositor defined):AID1813, AID1829]; type: functional; conditions: Homo sapiens

T4 sequence (Q00975 whole entry): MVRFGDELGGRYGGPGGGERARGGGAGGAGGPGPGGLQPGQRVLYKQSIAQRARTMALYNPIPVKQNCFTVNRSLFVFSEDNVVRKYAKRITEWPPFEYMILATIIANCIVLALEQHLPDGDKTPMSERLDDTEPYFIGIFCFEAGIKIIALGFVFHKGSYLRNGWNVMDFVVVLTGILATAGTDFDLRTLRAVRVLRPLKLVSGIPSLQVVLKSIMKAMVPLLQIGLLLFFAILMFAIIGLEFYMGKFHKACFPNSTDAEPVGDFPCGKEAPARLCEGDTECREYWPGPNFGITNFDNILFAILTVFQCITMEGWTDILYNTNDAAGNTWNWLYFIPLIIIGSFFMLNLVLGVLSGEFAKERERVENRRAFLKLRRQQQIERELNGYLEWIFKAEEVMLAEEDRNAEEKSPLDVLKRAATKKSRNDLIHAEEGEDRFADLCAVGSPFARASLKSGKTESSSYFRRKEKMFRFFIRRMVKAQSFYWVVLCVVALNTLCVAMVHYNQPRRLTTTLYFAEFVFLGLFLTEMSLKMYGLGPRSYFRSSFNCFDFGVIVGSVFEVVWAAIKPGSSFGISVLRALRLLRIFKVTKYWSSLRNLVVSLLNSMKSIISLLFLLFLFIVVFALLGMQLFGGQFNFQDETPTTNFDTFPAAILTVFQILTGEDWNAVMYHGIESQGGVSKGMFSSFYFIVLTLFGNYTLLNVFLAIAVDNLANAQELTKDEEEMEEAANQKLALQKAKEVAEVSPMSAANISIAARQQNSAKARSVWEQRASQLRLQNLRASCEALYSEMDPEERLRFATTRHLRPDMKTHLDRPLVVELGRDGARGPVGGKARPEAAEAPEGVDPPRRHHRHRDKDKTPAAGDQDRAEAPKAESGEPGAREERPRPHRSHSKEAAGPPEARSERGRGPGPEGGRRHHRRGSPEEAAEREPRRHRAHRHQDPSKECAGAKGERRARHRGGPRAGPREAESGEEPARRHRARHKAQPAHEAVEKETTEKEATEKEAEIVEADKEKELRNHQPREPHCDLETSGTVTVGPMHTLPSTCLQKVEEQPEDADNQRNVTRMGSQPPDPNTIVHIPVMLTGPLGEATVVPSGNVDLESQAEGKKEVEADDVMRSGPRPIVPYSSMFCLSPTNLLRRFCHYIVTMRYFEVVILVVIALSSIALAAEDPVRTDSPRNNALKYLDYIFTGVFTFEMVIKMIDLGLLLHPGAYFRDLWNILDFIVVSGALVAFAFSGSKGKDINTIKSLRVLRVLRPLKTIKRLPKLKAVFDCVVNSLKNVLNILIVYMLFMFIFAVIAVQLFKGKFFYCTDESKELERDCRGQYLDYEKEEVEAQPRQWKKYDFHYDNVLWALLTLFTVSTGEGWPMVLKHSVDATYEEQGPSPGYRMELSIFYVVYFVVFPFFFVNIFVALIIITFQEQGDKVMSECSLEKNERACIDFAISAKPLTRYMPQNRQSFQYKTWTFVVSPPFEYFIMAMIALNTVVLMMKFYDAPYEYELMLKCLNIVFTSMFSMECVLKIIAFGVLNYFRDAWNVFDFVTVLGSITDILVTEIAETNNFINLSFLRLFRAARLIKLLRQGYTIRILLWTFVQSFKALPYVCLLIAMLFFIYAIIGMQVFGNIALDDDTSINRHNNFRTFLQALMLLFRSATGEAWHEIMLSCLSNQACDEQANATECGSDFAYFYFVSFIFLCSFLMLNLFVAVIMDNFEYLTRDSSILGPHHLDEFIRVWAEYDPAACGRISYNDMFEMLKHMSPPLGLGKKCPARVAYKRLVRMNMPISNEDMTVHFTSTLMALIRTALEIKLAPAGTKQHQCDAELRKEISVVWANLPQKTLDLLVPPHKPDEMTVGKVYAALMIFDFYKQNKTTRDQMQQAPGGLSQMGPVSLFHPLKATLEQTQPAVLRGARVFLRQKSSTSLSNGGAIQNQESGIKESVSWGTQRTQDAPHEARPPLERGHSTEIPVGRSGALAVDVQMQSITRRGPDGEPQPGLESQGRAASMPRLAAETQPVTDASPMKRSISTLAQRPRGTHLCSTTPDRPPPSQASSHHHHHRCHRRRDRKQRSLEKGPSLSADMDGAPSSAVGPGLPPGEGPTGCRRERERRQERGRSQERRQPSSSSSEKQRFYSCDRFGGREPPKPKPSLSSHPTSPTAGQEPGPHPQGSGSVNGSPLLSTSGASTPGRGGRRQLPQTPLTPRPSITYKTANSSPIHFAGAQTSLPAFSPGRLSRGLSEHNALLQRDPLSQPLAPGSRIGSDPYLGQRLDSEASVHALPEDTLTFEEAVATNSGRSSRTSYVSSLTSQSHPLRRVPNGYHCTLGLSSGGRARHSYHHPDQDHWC
T4 sequence (Q02410 whole entry): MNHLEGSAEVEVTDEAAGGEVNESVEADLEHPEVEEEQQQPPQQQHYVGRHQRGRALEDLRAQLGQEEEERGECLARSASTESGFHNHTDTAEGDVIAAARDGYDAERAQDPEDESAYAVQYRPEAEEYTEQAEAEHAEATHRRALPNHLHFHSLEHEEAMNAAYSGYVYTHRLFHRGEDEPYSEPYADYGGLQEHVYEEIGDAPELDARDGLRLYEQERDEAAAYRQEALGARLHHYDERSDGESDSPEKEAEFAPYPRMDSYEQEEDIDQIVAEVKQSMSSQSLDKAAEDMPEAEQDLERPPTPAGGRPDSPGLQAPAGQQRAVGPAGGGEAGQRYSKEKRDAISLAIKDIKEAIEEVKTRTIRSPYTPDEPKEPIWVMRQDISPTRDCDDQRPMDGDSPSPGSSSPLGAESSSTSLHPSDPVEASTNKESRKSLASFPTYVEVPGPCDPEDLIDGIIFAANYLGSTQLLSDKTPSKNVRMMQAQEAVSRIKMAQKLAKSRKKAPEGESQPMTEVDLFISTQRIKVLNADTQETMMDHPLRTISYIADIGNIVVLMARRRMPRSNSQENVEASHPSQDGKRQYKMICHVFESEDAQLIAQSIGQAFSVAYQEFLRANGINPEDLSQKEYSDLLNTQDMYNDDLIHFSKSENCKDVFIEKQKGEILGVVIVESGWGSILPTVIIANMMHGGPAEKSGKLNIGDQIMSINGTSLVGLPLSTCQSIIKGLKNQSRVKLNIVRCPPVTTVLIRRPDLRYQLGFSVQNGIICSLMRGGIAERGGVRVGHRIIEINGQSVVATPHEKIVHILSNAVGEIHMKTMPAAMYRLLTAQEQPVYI
Sequence of Neurotensin receptor type 1 (P30989 whole entry): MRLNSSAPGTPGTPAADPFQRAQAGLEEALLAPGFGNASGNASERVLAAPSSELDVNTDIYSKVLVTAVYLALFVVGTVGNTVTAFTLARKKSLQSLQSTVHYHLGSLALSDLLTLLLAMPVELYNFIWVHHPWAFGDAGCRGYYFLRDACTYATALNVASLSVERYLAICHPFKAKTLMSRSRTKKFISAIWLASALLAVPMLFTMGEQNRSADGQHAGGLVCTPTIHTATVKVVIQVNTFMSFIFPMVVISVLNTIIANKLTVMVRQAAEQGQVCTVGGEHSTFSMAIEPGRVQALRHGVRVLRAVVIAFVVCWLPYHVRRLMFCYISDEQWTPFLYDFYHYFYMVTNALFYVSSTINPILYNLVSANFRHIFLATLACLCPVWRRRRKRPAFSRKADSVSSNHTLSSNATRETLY
Sequence of Female germline-specific tumor suppressor gld-1 (Q17339 whole entry): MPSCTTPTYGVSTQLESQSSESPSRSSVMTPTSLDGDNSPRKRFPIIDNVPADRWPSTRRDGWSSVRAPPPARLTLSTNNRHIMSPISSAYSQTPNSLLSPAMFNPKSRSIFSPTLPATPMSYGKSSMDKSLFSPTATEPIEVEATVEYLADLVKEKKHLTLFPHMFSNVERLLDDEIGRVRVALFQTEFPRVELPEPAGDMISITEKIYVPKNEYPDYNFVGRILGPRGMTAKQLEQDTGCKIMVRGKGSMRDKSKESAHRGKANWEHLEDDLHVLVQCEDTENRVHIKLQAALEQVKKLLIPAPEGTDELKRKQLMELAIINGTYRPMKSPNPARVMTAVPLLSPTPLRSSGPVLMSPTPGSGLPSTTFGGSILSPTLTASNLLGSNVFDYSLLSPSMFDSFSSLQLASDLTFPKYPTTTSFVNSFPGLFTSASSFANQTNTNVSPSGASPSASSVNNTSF
Sequence of Trypsin (P00761 whole entry): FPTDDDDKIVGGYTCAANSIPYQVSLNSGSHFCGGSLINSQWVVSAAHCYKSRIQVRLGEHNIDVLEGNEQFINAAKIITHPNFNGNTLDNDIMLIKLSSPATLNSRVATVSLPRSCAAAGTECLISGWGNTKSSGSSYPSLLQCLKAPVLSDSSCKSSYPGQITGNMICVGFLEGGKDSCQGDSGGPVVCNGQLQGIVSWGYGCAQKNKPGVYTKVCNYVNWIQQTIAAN
Sequence of Protein Rev (P04618 whole entry): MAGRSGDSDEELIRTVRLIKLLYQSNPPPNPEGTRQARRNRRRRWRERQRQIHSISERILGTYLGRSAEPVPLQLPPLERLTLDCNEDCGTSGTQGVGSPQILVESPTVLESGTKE

EC50 [1]: 152 µM (active) | EC50 [2]: > 300 µM (not active) | EC50 [3]: 8.64 µM (active)
Structure (SMILES): O=C(CC1Nc2ccccc2NC1=O)Nc1cc(Cl)cc(Cl)c1 (stereo unspecified)

AC50 (CAAX prenyl protease 2): 5.44 µM (active) | AC50 (Trypsin): 1.41 µM (active)
Structure (SMILES): C=CCn1c(=O)c2c(nc(-c3ccc(S(=O)(=O)O)cc3)n2C)n(C)c1=O

Structure (SMILES): Nc1cc2nc3ccccc3nc2cc1N
IC50 [4]: 4.97 µM (active) | IC50 [5]: 9.86 µM (active) | IC50 (Protein Rev): 9.53 µM (active) | IC50 [6]: > 100 µM (inactive) | IC50 [7]: > 50 µM (inactive)

Structure (SMILES): FC(F)(F)c1ccc(Cl)c(Nc2nnc(-c3ccncc3)s2)c1
EC50 [8]: > 195 µM (inactive)
